According to ChEMBL document CHEMBL1201862, “PubChem BioAssay data set” (2004):
Each block holds one molecule with its values, some of them ahead of it. Active and inactive are the calls of the source.

Experiments:
[1] = biological target: T1, Tyrosine-protein phosphatase non-receptor type 22 (Homo sapiens, UniProt Q9Y2R2); test: LYP (PTPN22) phosphatase inhibitor potency, SAR follow-up, biochemical, pCAP fluorogenic substrate, fluorescence, set 3 (AID 449727); type: functional
[2] = biological target: T1, Tyrosine-protein phosphatase non-receptor type 22; test: SAR LYP1 Fluorescent Assay using OMFP substrate for In Vitro dose response studies - Set 3. [Related pubchem assays (depositor defined):AID1779, AID1784, AID2140, AID2686]; type: functional
[3] = biological target: Glyceraldehyde-3-phosphate dehydrogenase (Homo sapiens, UniProt P04406)
Sequence of Glyceraldehyde-3-phosphate dehydrogenase (P04406 whole entry): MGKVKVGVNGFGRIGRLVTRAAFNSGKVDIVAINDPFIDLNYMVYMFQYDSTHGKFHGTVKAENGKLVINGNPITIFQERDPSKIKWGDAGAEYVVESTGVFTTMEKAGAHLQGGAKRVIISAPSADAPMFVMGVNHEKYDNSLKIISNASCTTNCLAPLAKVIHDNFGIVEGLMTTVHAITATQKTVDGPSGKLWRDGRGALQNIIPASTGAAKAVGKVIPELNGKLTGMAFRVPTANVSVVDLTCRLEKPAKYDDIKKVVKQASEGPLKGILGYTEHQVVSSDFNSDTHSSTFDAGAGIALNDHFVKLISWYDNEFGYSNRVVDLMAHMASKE

[4] = biological target: Tyrosine-protein phosphatase non-receptor type 12 (Homo sapiens, UniProt Q05209); test: SAR Selectivity Analysis of small molecule inhibitors of PEST using pCAP in a fluorescence assay. [Related pubchem assays (depositor defined):AID1779, AID1784, AID2135]; type: functional
Sequence of Tyrosine-protein phosphatase non-receptor type 12 (Q05209 whole entry): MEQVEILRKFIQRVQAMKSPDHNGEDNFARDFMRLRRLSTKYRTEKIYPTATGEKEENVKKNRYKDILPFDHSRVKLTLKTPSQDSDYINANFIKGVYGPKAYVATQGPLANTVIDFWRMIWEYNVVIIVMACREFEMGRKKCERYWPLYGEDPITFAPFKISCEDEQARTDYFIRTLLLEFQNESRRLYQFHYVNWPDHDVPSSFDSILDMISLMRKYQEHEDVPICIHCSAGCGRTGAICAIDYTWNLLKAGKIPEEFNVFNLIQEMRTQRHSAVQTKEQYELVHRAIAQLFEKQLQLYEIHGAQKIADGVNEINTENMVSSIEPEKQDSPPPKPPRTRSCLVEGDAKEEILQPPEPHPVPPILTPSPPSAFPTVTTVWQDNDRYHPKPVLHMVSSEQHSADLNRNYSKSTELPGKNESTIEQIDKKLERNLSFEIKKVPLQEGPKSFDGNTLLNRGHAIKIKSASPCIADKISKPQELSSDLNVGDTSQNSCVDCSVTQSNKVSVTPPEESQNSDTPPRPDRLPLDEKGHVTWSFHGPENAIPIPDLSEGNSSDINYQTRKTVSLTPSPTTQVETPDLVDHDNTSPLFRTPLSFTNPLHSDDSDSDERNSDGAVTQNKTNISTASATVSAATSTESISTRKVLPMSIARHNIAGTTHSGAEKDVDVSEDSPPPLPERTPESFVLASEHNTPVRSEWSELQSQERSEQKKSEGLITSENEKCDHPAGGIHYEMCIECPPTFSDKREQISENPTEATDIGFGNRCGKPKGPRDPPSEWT

[5] = biological target: Dual specificity protein phosphatase 3 (Homo sapiens, UniProt P51452); test: VHR1 inhibitor Ki determination, SAR follow-up, biochemical, colorimetric (AID 2004)
Sequence of Dual specificity protein phosphatase 3 (P51452 whole entry): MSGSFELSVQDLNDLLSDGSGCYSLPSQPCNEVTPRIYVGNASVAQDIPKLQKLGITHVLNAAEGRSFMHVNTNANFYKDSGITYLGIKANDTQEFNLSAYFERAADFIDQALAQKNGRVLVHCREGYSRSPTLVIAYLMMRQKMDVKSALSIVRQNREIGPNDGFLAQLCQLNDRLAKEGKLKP

Cytochrome P450 2D6 = Cytochrome P450 2D6 (Homo sapiens, UniProt P10635); test: qHTS Assay for Inhibitors and Substrates of Cytochrome P450 2D6. [Related pubchem assays: 410 ]; type: ADME; details: read-out: Potency
Sequence of Cytochrome P450 2D6 (P10635 whole entry): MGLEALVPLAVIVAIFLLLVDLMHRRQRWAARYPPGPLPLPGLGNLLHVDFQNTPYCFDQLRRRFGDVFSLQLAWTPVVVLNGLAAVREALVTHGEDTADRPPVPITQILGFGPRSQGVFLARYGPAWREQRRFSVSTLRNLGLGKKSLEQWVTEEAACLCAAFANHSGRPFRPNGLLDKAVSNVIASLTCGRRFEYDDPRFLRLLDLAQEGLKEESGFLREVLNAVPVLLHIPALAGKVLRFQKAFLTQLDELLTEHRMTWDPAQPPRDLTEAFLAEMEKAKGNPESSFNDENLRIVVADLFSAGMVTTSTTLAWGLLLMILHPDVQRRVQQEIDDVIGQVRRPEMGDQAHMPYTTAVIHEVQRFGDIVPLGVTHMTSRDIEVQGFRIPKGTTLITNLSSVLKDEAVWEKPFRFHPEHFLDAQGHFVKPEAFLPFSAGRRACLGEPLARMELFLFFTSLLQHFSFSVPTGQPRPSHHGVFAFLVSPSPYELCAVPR

Bcl-2-like protein 10 = Bcl-2-like protein 10 (Homo sapiens, UniProt Q9HD36); test: displacers of TR3 peptide from Bcl-B, primary screen, selectivity assay for Bfl-1 inhibitor project, biochemical, fluorescence polarization, FITC-TR3 peptide (AID 748);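 also: fluorescence polarization from a fluorescein-labelled TR3 peptide binding purified Bcl-B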
Sequence of Bcl-2-like protein 10 (Q9HD36 whole entry, the tested form may be a part): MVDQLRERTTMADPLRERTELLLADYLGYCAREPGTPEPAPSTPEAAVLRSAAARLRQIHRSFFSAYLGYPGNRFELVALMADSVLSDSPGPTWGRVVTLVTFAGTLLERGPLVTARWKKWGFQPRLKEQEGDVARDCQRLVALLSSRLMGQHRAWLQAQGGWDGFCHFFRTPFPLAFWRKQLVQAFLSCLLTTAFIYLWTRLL

[6] = biological target: T2, Hepatocyte nuclear factor 4-alpha (Homo sapiens, UniProt P41235); type: functional, cell-based;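 also: biochemical luminescence-based dose-response counterscreen measuring inhibition of HNF4 dimerization, run alongside a screen for blockers of ABHD5–perilipin-5 interaction; split luciferase complementation of HNF4 fusion proteins in cell lysate measuring dimerization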
T2 sequence (P41235 whole entry): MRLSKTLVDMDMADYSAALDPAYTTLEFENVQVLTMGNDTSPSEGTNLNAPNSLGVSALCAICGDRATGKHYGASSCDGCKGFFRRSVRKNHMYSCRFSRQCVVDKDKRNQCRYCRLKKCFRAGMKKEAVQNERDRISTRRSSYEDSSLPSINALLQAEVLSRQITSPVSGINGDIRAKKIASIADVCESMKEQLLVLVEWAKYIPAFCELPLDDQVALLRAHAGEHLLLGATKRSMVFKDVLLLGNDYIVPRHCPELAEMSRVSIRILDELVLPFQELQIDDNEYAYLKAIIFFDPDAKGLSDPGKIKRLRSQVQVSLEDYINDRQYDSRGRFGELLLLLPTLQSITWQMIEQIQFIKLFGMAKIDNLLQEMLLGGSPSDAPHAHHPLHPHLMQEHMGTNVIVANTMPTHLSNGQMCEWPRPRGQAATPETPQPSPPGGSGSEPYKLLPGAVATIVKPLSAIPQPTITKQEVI

[7] = biological target: Induced myeloid leukemia cell differentiation protein Mcl-1 (Homo sapiens, UniProt Q07820); type: functional
Sequence of Induced myeloid leukemia cell differentiation protein Mcl-1 (Q07820 whole entry): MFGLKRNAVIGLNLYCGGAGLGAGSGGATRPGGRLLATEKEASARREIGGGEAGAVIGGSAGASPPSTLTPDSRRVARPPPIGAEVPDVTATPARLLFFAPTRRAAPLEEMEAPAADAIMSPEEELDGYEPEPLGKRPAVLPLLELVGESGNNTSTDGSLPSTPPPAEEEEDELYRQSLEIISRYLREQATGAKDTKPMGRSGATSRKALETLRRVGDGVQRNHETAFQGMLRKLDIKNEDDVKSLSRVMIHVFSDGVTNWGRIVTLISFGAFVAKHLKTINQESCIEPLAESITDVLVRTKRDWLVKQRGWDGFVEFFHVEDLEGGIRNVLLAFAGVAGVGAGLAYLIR

T1 sequence (Q9Y2R2 whole entry): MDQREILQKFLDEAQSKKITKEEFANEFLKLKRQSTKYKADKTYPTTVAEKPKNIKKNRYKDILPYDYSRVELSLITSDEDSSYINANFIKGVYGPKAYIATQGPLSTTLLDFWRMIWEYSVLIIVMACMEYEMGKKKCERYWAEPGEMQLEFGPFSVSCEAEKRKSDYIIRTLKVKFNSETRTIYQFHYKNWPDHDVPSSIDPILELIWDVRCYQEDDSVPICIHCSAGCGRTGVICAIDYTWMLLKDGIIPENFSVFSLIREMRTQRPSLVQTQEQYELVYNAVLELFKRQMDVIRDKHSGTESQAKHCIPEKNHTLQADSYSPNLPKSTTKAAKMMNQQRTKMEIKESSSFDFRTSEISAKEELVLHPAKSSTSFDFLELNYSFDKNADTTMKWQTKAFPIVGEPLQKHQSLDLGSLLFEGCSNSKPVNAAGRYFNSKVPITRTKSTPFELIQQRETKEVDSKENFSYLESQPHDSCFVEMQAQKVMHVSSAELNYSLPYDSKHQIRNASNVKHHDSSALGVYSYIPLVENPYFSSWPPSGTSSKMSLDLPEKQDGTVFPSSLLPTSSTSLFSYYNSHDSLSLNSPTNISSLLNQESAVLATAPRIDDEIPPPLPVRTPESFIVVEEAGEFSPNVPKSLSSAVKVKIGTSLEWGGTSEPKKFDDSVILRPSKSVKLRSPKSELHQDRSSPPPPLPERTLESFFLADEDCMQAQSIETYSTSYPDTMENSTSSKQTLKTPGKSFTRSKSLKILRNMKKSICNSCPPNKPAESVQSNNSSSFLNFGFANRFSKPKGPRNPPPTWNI

IC50 [1]: > 100 µM (inactive) | IC50 [2]: > 100 µM (inactive) | IC50 [3]: > 100 µM (not active) | IC50 [4]: > 100 µM (inactive)
SMILES: COc1cc(/C=C2\SC(N(C)c3ccc(O)cc3)=NC2=O)ccc1OCC(=O)O

SMILES: CCOC(=O)c1c(N)sc2c1CCN(Cc1ccccc1)C2 [TINORIDINE]
Ki [5]: 20.5 µM (inactive)

AC50 (Cytochrome P450 2D6): 3.98 µM (inconclusive)
SMILES: CCCCc1nc2c(c3c1CC(C)OC3)CN(CCC(C)C)CC2 (centres undefined)

IC50 (Bcl-2-like protein 10): 19 µM (active) | IC50 [6]: 1.6 µM (active) | IC50 [7]: 3.01 µM (active)
SMILES: Cc1ccc(NC(=O)CSc2nnc(-c3ccco3)c(-c3ccco3)n2)cc1
